{
  "source": "ChEMBL document CHEMBL3813691",
  "about": "“Quantitative relationships between structure and cytotoxic activity of flavonoid derivatives. An application of Hirshfeld surface derived descriptors” (Bioorg Med Chem Lett, 2016)",
  "data": [
    {"tested_on": "not listed separately", "assay": "Cytotoxicity against human HL60 cells assessed as reduction in cell survival after 46 hrs by MTT assay", "format": "functional, cell-based", "details": "HL-60, 46 h", "units": {"IC50": "µM"}, "values": [
      {"smiles": "O=C1/C(=C\\c2ccccc2)C(c2ccccc2)Oc2ccccc21", "note": "(stereo not drawn)", "IC50": 33.3},
      {"smiles": "Cc1ccc(C2C3C(=NN2C)c2ccccc2OC3c2ccccc2)cc1", "note": "(stereo not drawn)", "IC50": 27.8},
      {"smiles": "CN1N=C2c3cc(O)ccc3OC(c3ccccc3)C2C1c1ccccc1", "note": "(stereo not drawn)", "IC50": 37.7},
      {"smiles": "Oc1cccc(C2NN=C3c4ccccc4OC(c4ccccc4)C32)c1", "note": "(stereo not drawn)", "IC50": 50},
      {"smiles": "O=C1c2ccccc2OC(c2ccccc2)C12N=NCC2c1ccc([N+](=O)[O-])cc1", "note": "(stereo not drawn)", "IC50": 54.6},
      {"smiles": "CN1N=C2c3ccccc3OC(c3ccccc3)C2C1c1ccc(Cl)cc1", "note": "(stereo not drawn)", "IC50": 7.4},
      {"smiles": "COc1ccc(C2C3C(=NN2C)c2ccccc2OC3c2ccccc2)cc1", "note": "(stereo not drawn)", "IC50": 541},
      {"smiles": "Oc1ccc(C2NN=C3c4ccccc4OC(c4ccccc4)C32)cc1", "note": "(stereo not drawn)", "IC50": 42},
      {"smiles": "CN1N=C2c3ccccc3OC(c3ccccc3)C2C1c1cccc(C#N)c1", "note": "(stereo not drawn)", "IC50": 65.4},
      {"smiles": "CN1N=C2c3ccccc3OC(c3ccccc3)C2C1c1ccc(F)cc1", "note": "(stereo not drawn)", "IC50": 97.7},
      {"smiles": "CN1N=C2c3ccccc3OC(c3ccccc3)C2C1c1ccc(O)cc1", "note": "(stereo not drawn)", "IC50": 47.7},
      {"smiles": "c1ccc(C2Oc3ccccc3C3=NNC(c4ccncc4)C32)cc1", "note": "(stereo not drawn)", "IC50": 49.7},
      {"smiles": "CN1N=C2c3ccccc3OC(c3ccccc3)C2C1c1ccc(Br)cc1", "note": "(stereo not drawn)", "IC50": 7.5},
      {"smiles": "COc1cccc(C2C3C(=NN2C)c2ccccc2OC3c2ccccc2)c1", "note": "(stereo not drawn)", "IC50": 70.3},
      {"smiles": "N#Cc1cccc(C2CN=NC23C(=O)c2ccccc2OC3c2ccccc2)c1", "note": "(stereo not drawn)", "IC50": 75},
      {"smiles": "Oc1ccc2c(c1)C1=NNC(c3ccccc3)C1C(c1ccccc1)O2", "note": "(stereo not drawn)", "IC50": 27.3},
      {"smiles": "CN1N=C2c3ccccc3OC(c3ccccc3)C2C1c1ccc(C#N)cc1", "note": "(stereo not drawn)", "IC50": 20.1},
      {"smiles": "Cc1cccc(C2C3C(=NN2C)c2ccccc2OC3c2ccccc2)c1", "note": "(stereo not drawn)", "IC50": 60.5},
      {"smiles": "CN1N=C2c3ccccc3OC(c3ccccc3)C2C1c1ccccc1", "note": "(stereo not drawn)", "IC50": 54.1},
      {"smiles": "CN1N=C2c3ccccc3OC(c3ccccc3)C2C1c1cccc(O)c1", "note": "(stereo not drawn)", "IC50": 344},
      {"smiles": "COc1cccc(C2CN=NC23C(=O)c2ccccc2OC3c2ccccc2)c1", "note": "(stereo not drawn)", "IC50": 74.9}
    ]},
    {"tested_on": "not listed separately", "assay": "Cytotoxicity against human HL60 cells assessed as reduction in cell survival", "format": "functional, cell-based", "details": "HL-60", "units": {"IC50": "µM"}, "values": [
      {"smiles": "COc1cc([C@@H]2c3cc4c(cc3[C@@H](O[C@@H]3O[C@@H]5CO[C@@H](C)O[C@H]5[C@H](O)[C@H]3O)[C@H]3COC(=O)[C@H]23)OCO4)cc(OC)c1O", "note": "[ETOPOSIDE]", "IC50": 0.025}
    ]},
    {"tested_on": "not listed separately", "assay": "Selectivity ratio of IC50 for HUVEC to IC50 for human HL60 cells", "format": "cell-based, HL-60", "details": "HUVEC and HL60 cells, read-out: Ratio IC50", "values": [
      {"smiles": "CN1N=C2c3ccccc3OC(c3ccccc3)C2C1c1ccc(Cl)cc1", "note": "(stereo not drawn)", "selectivity ratio": 10},
      {"smiles": "CN1N=C2c3ccccc3OC(c3ccccc3)C2C1c1ccc(Br)cc1", "note": "(stereo not drawn)", "selectivity ratio": 25}
    ]},
    {"tested_on": "HUVEC", "assay": "Cytotoxicity against HUVEC assessed as reduction in cell survival after 46 hrs by MTT assay", "format": "cell-based", "details": "Homo sapiens", "units": {"IC50": "µM"}, "values": [
      {"smiles": "O=C(/C=C/c1ccccc1Cl)c1ccccc1O", "IC50": 7.8},
      {"smiles": "O=C1/C(=C/c2ccc(Cl)cc2)C(c2ccccc2)Oc2ccccc21", "note": "(stereo not drawn)", "IC50": 6.9},
      {"smiles": "CN1N=C2c3ccccc3OC(c3ccccc3)C2C1c1ccc(Cl)cc1", "note": "(stereo not drawn)", "IC50": 70.9},
      {"smiles": "CN1N=C2c3ccccc3OC(c3ccccc3)C2C1c1ccc(Br)cc1", "note": "(stereo not drawn)", "IC50": 184}
    ]}
  ]
}
